The values that follow are results of earlier work, collected in patent US20110033519A1, “Device with Aromatase Inhibitor for the Treatment and Prevention of Uterine Fibroids and Method of Use” (priority 2009, published 2011).

Like-named read-outs stand apart in the source and are kept apart here.

The test system of one data set is fibroids. The conditions noted are these: three months.
Another data set has as its system human sperm. The following applies: incubated in a solution of copper ions; after 120 minutes.

In the case of `CC(C)(C#N)c1cc(Cn2cncn2)cc(C(C)(C)C#N)c1` [Anastrozole], the “reduction in fibroid volume” value in the data set with fibroids (oral, 1 mg/day) is 56%. Turning to copper ions, in the data set with human sperm, the human sperm immotile result is recorded as “Ninety-five”. Regarding `N#Cc1ccc(C(c2ccc(C#N)cc2)n2cncn2)cc1` [Letrozole], the “reduction in fibroid volume” value in the data set on fibroids (study of 35 women, 2.5 mg per day orally) is listed as 45%; in the data set with fibroids (trial of 16 women, oral, 5 mg/day), 47%.
